Experimental data: US20070010518A1, “Method for administering levosimendan” (priority 2005, published 2007)

How the values were obtained:
Assay type in all cases: in vivo, human
[1] = tested on: patients with New York Heart Association functional class II to III heart failure; assay: Doppler echocardiographic hemodynamic measurements in double-blind, placebo-controlled study
Procedure: (§1) A double-blind, placebo-controlled, parallel group, single center study in patients with New York Heart Association functional class II to III heart failure was conducted. Patients were randomised in 1:1 ratio to receive either levosimendan or placebo. Study drug administration was initiated with a loading dose of 12 μg/kg of levosimendan or placebo delivered over 10 minutes. This was followed by a continuous infusion of 0.1 μg/kg/min for 50 minutes. If the dose was well tolerated the infusion rate was increased to 0.2 μg/kg/min for a further 23 hours. After the study drug was started, the hemodynamic assessments were repeated at 30 minutes, at two and six hours. The non-invasive hemodynamic assessments were repeated at 24-hours. Follow-up visits took place at 2, 3, 5, 7, 9 and 14 days from the beginning of the study. On these visits echocardiographic measurements were performed and blood pressure and heart rate were measured.
An Acuson Sequoia ultrasound system with 2.5-3.75 MHz probes was used for the Doppler echocardiographic measurements. Blood flow velocity curves were recorded at a sweep speed of 100 mm/s. Left ventricular ejection fraction was assessed by two-dimensional apical two- and four-chamber views with use of modified Simpson rule. Mitral flow velocity was assessed by pulsed wave Doppler from the apical four-chamber view by placing a 3-mm sample volume between the tip of the mitral leaflets in diastole. The following measurements were made over five consecutive cycles: maximal early and maximal late diastolic velocity and their ratio, duration of the late diastolic velocity wave, deceleration time and deceleration rate of early diastolic velocity. Peak velocities were defined as the highest point of the spectrum.

[2] = tested on: patients with New York Heart Association functional class II to III heart failure; assay: Plasma natriuretic peptide (NT-proANP, NT-proBNP) measurements in double-blind, placebo-controlled study
Procedure: as §1
Blood samples (4 ml) for natriuretic peptide (NT-proANP, NT-proBNP) measurements were taken into pre-cooled EDTA tubes. Samples were taken at baseline (0-sample) and on the first study day 30 min, 2 h, 6h and 24 h after the start of the infusion and in the mornings of days 2, 3, 5, 7, 9 and 14 after the start of the study drug infusion.

[3] = tested on: patients with New York Heart Association functional class II to III heart failure; assay: Invasive hemodynamic assessments in double-blind, placebo-controlled study
Procedure: as §1

[4] = after starting the 24-hour infusion
[5] = echocardiography, 24-hour infusion
[6] = after start of 24-hour infusion

In the case of `C[C@@H]1CC(=O)NN=C1c1ccc(NN=C(C#N)C#N)cc1` [levosimendan, (−)-enantiomer of [[4-(1,4,5,6-tetrahydro-4-methyl-6-oxo-3-pyridazinyl)phenyl]hydrazono]propanedinitrile], the “Maintenance of beneficial hemodynamic and neurohormonal effects” value ([1]; after levosimendan administration (24-hour infusion)) is reported as “maintained up to two weeks”, the “Time at which echocardiographically estimated PCWP reached its lowest value” [1, 4] is reported as 2 days and the “Time of maximal effects on hemodynamic parameters” value [1, 4] is reported as 1 to 3 days. For the same compound, the “Linearly estimated duration of an increase in CO” value [1, 5] was 13 days, the “Linearly estimated duration of the decrease in PCWP” value [1, 5] was 9 days and the “Time at which highest CO value estimated by echocardiography was detected” value ([1]; end of the 24-hour infusion) was 24 h. For the same compound, the “Duration of treatment effect on plasma NT-proANP estimated by a linear model” value ([2]; 24-hour infusion) was 16 days, the “Duration of treatment effect on plasma NT-proBNP estimated by a linear model” value ([2]; 24-hour infusion) was 12 days and the “Day at which plasma NT-proANP level reached its lowest value” [2, 6] was 3 days. The “Day at which plasma NT-proBNP level reached its lowest value” [2, 6] was 2 days, the “Invasively measured cardiac output (CO)” value ([3]; at six hours, loading dose 12 μg/kg, then infusion 0.1-0.2 μg/kg/min) was 5.4 L/min and the “Invasively measured cardiac output (CO)” value ([3]; baseline, levosimendan group) was 4.3 L/min. For the same compound, the PCWP ([3]; baseline, levosimendan treatment) was 20 mmHg and the PCWP ([3]; in response to levosimendan treatment, loading dose 12 μg/kg, then infusion 0.1-0.2 μg/kg/min) was 15 mmHg.
